Data from ChEMBL document CHEMBL1201862, “PubChem BioAssay data set” (2004).
The source made the active and inactive calls.

Columns and labels:
[1] = A Cell Based Secondary Assay To Explore Cytotoxicity of Compounds that Sensitize Mycobacterium Tuberculosis to Beta-Lactam Antibiotics.; format: functional
[2] = target: T1, Voltage-gated N-type calcium channel alpha-1B subunit/Amyloid beta A4 precursor protein-binding family A member 1 (Homo sapiens, UniProt Q00975+Q02410); format: protein assay
NS3 = NS3 (Hepatitis C virus, UniProt A3EZJ3); test: PubChem AID 2173; design: species or system Hepacivirus hominis
Sequence of NS3 (A3EZJ3 whole entry): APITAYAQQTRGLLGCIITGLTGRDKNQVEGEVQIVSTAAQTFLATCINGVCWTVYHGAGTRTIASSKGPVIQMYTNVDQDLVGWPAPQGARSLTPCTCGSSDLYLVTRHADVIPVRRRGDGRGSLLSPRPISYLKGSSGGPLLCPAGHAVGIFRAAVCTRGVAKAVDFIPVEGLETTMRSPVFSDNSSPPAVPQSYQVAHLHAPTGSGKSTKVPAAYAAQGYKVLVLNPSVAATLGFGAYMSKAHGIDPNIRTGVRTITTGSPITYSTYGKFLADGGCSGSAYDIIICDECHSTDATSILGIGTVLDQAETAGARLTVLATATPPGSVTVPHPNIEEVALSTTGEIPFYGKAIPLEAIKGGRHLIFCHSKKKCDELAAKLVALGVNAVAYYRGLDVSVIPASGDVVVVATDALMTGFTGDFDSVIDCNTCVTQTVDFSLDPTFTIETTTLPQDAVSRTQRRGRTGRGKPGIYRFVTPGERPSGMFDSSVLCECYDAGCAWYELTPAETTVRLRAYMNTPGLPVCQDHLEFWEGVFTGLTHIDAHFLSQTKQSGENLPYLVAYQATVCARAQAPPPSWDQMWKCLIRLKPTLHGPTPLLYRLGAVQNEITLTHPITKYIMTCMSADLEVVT

[3] = target: T1, Voltage-gated N-type calcium channel alpha-1B subunit/Amyloid beta A4 precursor protein-binding family A member 1; format: protein assay; remark: listed apart in the source
[4] = target: Induced myeloid leukemia cell differentiation protein Mcl-1 (Homo sapiens, UniProt Q07820); format: functional
Sequence of Induced myeloid leukemia cell differentiation protein Mcl-1 (Q07820 whole entry): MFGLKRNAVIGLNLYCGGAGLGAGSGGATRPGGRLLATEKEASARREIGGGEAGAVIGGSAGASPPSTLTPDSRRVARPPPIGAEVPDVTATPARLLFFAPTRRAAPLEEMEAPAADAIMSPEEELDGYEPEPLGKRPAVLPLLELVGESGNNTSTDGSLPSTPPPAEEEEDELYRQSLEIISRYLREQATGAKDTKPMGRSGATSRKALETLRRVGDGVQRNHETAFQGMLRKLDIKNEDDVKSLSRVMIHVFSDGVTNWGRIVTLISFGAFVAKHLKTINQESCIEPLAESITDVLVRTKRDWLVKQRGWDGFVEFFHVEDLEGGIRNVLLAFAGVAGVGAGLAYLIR

Cytochrome P450 2C19 = Cytochrome P450 2C19 (Homo sapiens, UniProt P33261); test: Cytochrome panel assay with activity outcomes. Panel member name: p450-cyp2c19 Compounds with AC50 equal or less than 10 uM are considered active; format: functional; settings: read-out: AC50
Sequence of Cytochrome P450 2C19 (P33261 whole entry): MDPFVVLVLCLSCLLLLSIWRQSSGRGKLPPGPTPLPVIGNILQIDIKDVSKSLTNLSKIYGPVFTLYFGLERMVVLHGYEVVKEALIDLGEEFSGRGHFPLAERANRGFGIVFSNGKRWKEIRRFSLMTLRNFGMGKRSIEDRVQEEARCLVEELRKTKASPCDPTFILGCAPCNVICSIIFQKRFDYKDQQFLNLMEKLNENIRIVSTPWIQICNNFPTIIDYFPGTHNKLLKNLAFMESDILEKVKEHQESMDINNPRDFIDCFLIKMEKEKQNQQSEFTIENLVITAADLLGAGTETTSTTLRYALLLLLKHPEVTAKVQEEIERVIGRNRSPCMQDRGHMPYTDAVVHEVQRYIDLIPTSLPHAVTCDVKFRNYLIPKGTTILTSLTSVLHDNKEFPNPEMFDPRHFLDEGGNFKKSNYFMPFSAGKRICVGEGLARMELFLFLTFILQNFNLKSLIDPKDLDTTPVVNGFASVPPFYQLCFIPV

[5] = target: 26S proteasome non-ATPase regulatory subunit 14 (Homo sapiens, UniProt O00487); test: inhibition of proteasome subunit RPN11 – biochemical, fluorescence polarization, uHTS hits, confirmation (AID 602368); format: functional
Sequence of 26S proteasome non-ATPase regulatory subunit 14 (O00487 whole entry): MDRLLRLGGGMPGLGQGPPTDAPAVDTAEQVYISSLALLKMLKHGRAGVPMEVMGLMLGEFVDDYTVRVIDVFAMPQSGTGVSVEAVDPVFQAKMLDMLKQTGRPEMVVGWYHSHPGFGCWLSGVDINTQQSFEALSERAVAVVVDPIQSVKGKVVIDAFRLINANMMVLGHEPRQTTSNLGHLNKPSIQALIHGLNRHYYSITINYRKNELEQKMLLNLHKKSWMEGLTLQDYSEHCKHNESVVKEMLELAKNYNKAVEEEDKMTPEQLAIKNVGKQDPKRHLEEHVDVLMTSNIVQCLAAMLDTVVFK

[6] = target: 72 kDa type IV collagenase (Homo sapiens, UniProt P08253); test: Dose Response validation of uHTS RPN11 inhibitor hits using a MMP-2 Fluorescence assay.; format: functional
Prothrombin = Prothrombin (Bos taurus, UniProt P00735); test: thrombin inhibition, dose response, biochemical, fluorescence polarization, uHTS hits (AID 602369); format: functional
Cytochrome P450 3A4 = Cytochrome P450 3A4 (Homo sapiens, UniProt P08684);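 note: CYP3A4 tested as one member of a cytochrome P450 panel screen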
[7] = cytotoxicity in HPDE-C7 cells, cell-based, fluorescence, HTS (AID 430); format: functional; settings: Homo sapiens
[8] = cytotoxicity in KRAS-transformed pancreatic duct cells, primary screen, cell-based, fluorescence, HTS (AID 431); format: functional; settings: Homo sapiens;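 note: cell line used: HPDE-C7K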
Vero [9] = test: Vero cell cytotoxicity, cytotoxicity control for flavivirus capping enzyme inhibitors (AID 588742); format: functional; settings: Chlorocebus sabaeus
INS1 = test: beta cell apoptosis inhibitors, cytokine rescue, dose response, luminescence, retest (AID 449756); format: functional, cell-based; settings: Rattus norvegicus;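 note: cell death triggered by IL-1 beta plus TNF-alpha plus IFN-gamma mixture; protective hits raise ATP signal compared with cytokine alone wells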
Vero [10] = test: cells; format: functional; settings: Chlorocebus sabaeus
CAAX prenyl protease 2 = target: T2, CAAX prenyl protease 2 (Saccharomyces cerevisiae S288c, UniProt Q03530); format: biochemical
T2 sequence (Q03530 whole entry): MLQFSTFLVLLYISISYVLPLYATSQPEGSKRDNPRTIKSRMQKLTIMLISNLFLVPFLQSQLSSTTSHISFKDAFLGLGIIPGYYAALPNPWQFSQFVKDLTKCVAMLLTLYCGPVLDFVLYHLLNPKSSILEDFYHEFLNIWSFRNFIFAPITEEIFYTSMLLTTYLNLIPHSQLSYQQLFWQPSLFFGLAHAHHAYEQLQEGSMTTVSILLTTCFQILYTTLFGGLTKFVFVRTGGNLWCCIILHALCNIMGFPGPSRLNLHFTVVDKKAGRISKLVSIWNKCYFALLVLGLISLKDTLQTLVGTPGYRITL

T1 sequence (Q00975 whole entry): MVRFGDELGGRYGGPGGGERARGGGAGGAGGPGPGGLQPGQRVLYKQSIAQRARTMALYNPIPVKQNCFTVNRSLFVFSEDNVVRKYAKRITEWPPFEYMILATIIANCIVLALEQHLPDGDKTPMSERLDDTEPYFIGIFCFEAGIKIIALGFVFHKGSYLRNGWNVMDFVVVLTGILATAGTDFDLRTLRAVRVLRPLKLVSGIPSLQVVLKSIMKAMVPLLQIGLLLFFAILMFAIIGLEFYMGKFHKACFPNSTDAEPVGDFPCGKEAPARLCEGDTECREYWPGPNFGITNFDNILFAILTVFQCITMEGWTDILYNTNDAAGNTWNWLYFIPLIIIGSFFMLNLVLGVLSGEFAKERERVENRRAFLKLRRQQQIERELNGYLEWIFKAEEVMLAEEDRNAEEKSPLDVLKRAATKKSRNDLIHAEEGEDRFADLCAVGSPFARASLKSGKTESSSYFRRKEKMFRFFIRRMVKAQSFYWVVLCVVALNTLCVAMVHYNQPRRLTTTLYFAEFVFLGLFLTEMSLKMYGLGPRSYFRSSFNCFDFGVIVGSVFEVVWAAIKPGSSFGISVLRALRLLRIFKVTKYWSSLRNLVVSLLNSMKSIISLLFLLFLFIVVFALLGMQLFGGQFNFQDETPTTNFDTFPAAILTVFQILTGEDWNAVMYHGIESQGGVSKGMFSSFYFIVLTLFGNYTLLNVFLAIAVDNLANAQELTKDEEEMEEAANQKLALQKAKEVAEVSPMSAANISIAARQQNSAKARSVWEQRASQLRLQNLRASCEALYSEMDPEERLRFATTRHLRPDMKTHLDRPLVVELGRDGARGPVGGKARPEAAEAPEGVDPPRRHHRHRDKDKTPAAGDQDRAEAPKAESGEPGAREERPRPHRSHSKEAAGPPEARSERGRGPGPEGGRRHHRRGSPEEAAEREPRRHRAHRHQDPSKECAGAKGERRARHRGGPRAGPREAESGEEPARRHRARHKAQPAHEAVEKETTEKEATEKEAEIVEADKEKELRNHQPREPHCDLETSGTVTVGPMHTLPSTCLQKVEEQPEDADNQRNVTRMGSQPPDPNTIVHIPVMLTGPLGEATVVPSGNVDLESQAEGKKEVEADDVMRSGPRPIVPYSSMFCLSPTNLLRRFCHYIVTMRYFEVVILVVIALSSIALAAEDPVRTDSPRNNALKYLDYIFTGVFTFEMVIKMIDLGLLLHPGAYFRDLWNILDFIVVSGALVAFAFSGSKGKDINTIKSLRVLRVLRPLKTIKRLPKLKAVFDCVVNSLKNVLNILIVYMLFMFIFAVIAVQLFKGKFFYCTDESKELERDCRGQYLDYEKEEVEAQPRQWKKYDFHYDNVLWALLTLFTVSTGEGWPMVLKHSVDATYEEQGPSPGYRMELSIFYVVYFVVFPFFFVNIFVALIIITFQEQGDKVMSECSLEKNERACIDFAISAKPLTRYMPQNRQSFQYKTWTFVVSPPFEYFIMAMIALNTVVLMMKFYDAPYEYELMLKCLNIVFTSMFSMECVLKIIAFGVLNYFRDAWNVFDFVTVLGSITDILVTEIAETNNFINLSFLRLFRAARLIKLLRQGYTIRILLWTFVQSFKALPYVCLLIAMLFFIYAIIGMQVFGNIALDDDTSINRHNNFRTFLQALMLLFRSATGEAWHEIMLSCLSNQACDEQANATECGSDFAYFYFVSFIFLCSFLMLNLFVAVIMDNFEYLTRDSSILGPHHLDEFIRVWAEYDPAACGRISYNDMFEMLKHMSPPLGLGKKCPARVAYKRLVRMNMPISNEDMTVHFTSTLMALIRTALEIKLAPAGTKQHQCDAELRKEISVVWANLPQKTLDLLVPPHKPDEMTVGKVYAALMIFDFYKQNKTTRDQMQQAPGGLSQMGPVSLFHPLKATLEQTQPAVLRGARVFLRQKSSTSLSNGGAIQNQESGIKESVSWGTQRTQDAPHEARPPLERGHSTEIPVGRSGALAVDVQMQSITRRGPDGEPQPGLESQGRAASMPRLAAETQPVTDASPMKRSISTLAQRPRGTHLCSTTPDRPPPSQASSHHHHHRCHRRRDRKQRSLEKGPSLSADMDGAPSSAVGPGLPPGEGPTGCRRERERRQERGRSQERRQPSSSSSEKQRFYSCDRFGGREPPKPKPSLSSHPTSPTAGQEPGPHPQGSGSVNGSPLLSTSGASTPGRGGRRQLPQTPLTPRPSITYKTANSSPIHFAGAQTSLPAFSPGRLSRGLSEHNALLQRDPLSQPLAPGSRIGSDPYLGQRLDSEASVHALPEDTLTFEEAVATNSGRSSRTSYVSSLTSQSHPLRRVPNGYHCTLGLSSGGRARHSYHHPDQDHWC
T1 sequence (Q02410 whole entry): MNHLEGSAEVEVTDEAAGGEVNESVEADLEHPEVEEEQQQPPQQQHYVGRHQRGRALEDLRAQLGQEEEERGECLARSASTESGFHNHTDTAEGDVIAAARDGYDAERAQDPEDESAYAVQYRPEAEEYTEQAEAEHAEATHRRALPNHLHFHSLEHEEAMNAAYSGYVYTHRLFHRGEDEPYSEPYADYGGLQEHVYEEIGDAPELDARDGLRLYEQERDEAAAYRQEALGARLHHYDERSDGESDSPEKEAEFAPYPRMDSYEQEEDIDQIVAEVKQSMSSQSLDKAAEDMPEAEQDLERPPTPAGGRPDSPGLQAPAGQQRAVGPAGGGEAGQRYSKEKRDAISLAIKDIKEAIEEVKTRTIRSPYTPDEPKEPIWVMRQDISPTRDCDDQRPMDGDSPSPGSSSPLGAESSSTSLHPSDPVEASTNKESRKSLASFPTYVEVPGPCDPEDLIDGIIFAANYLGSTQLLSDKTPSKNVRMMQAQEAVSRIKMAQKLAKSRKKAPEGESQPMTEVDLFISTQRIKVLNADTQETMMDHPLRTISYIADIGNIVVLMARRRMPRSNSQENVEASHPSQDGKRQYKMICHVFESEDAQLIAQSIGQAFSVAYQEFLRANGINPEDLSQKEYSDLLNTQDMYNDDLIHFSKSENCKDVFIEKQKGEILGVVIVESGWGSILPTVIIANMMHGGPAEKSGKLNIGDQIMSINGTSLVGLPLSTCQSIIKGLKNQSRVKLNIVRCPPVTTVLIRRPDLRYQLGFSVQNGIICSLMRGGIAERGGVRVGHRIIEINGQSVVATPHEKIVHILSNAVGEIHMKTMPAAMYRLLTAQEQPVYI

With `Cc1cc(C(=O)CN2C(=O)NC(c3ccccc3)(c3ccccc3)C2=O)c(C)n1Cc1ccccc1` the CC50 [1] was > 40 µM (active).

For `COc1cc2cc3c(N)c(C(=O)Nc4sc(C)c(C)c4C#N)sc3nc2cc1OC`, the IC50 [2] was 11.8 µM (active), the IC50 (NS3) was > 36.3 µM (not active) and the IC50 [3] was > 50 µM (inactive). For the same molecule, the IC50 [4] was 1.26 µM (active), the AC50 (Cytochrome P450 2C19) was 15.8 µM (inconclusive) and the IC50 [5] was 48.3 µM (active). For the same molecule, the IC50 [6] was 8.14 µM (active), the IC50 (Prothrombin) was 25.8 µM (active) and the AC50 (Cytochrome P450 3A4) was 8.91 µM (inconclusive).

For `O=C(CCC(=O)N1CCN(C2CCCC2)CC1)Nc1nnc(C(F)(F)F)s1`, the EC50 [7] was > 20 µM (not active) and the EC50 [8] was > 20 µM (not active).

For `COc1ccccc1NC(=O)c1cc2cc(Br)ccc2cc1O`, the IC50 (NS3) was > 4.03 µM (active), the IC50 [4] was 2.63 µM (active) and the CC50 (Vero [9]) was 4.04 µM (active). For the same molecule, the AC50 (INS1) was 6.21 µM (active) and the CC50 (Vero [10]) was 2.72 µM (active).

With `CCCCOc1ccc(-c2cc(C(F)(F)F)c(C#N)c(SCC(=O)O)n2)cc1` the IC50 (NS3) was 1.98 µM (active) and the AC50 (CAAX prenyl protease 2) was 25.4 µM (active).

With `COc1cc2nc(N3CCN(C(=O)OCc4ccccc4)[C@H](C(=O)NC(C)(C)C)C3)nc(N)c2cc1OC` the CC50 [1] was 29.3 µM (active).
